Patent US5464617A, “β-lactam compounds” (Hoffmann-La Roche Inc., priority 1994, dated 1995)
≈ marks a conversion by molar mass, not a printed value. Structures can show the parent of a compound that is named as a salt.

Tests used:
[1] = system: Citrobacter freundii 1982; assay: MIC in vitro of a 1:4 combination of ceftriaxone with a compound of formula I (Test D); assay type: cell-based; conditions: for MIC C. freundii 1982 (D): test D; for MIC C. freundii 1982: Table 2
Description: The minimum inhibitory concentration in vitro ([…]) of a 1:4 combination of ceftriaxone with a compound of formula I against Citrobacter freundii 1982 was measured and compiled in Table 2 hereinafter.

E. coli 1346 = assay: Antibacterial activity of the products per se, serial dilution method in liquid medium (Test E); assay type: cell-based; conditions: product per se; for MIC E. coli 1346 (E): test E; for MIC E. coli 1346: Table 3, liquid medium
Description: The antibacterial activity of the products per se is illustrated on the basis of Table 3 hereinafter, the minimum inhibitory concentration […] in vitro against E. coli 1346 being determined using the serial dilution method in liquid medium: […]

[2] = Table 4, 1:4 combination of ceftriaxone with the compound
[3] = 1:4 combination of ceftriaxone with the compound

| MIC C. freundii 1982 (D) [1, 2] [µg/mL] | MIC E. coli 1346 (E) (E. coli 1346; Table 4) [µg/mL] | Structure (SMILES) | also measured |
| --- | --- | --- | --- |
| 2 | 8 | NC(=O)CSC1=C(C(=O)O)N2C(=O)[C@H]3NC[C@@H](C1)[C@H]32 [Example 2(f), (1aS,3aR,6bR)-5-Carbamoylmethylsulphanyl-1-oxo-1a,2,3,3a,4,6b-hexahydro-1H-2,6a-diazacyclobut[cd]indene-6-carboxylic acid trifluoroacetate] | – |
| 2 | 8 | CC(=O)N1C[C@H]2CC(Sc3nnnn3C)=C(C(=O)O)N3C(=O)[C@@H]1[C@@H]23 [Example 3(aa), (1aS,3aR,6bR)-2-Acetyl-5-(1-methyl-1H-tetrazol-5-ylsulphanyl)-1-oxo-1a,2,3,3a,4,6b-hexahydro-1H-2,6a-diazacyclobut[cd]indene-6-carboxylic acid sodium salt] | – |
| 16 | 32 | Cn1nnnc1SC1=C(C(=O)O)N2C(=O)[C@@H]3[C@H]2[C@H](C1)CN3C(=O)C(F)(F)F [Example 3(ab), (1aS,3aR,6bR)-5-(1-Methyl-1H-tetrazol-5-ylsulphanyl)-1-oxo-2-trifluoroacetyl-1a,2,3,3a,4,6b-hexahydro-1H-2,6a-diazacyclobut[cd]indene-6-carboxylic acid sodium salt] | – |
| 8 | 16 | Cc1nnc(SC2=C(C(=O)O)N3C(=O)[C@@H]4[C@H]3[C@H](C2)CN4C(=O)C(F)(F)F)s1 [Example 3(ad), (1aS,3aR,6bR)-5-(5-Methyl-1,3,4-thiadiazol-2-ylsulphanyl)-1-oxo-2-trifluoracetyl-1a,2,3,3a,4,6b-hexahydro-1H-2,6a-diazacyclobut[cd]indene-6-carboxylic acid sodium salt] | – |
| 2 | 8 | CC(=O)N1C[C@H]2CC(Sc3ccncc3)=C(C(=O)O)N3C(=O)[C@@H]1[C@@H]23 [Example 3(ah), (1aS,3aR,6bR)-2-Acetyl-1-oxo-5-(pyridin-4-ylsulphanyl)-1a,2,3,3a,4,6b-hexahydro-1H-2,6a-diazacyclobut[cd]indene-6-carboxylic acid sodium salt] | – |
| 0.5 | 2 | Cn1nnnc1SCC1=C(C(=O)O)N2C(=O)[C@@H]3[C@H]2[C@H](C1)CN3C(=O)C(F)(F)F [Example 19(c), (1aS,3aR,6bR)-5-(1-Methyl-1H-tetrazol-5-ylsulphanylmethyl)-1-oxo-2-trifluoracetyl-1a,2,3,3a,4,6b-hexahydro-1H-2,6a-diazacyclobut[cd]indene-6-carboxylic acid sodium salt] | – |
| 0.25 | 2 | Cn1nnnc1SCC1=C(C(=O)O)N2C(=O)[C@@H]3[C@H]2[C@H](C1)CN3C(=O)CC#N [Example 19(d), (1aS,3aR,6bR)-2-Cyanoacetyl-5-(1-methyl-1H-tetrazol-5-ylsulphanylmethyl)-1-oxo-1a,2,3,3a,4,6b-hexahydro-1H-2,6a-diazacyclobut[cd]indene-6-carboxylic acid sodium salt] | – |
| 0.25 | 0.5 | Cn1nnnc1SCC1=C(C(=O)O)N2C(=O)[C@@H]3[C@H]2[C@H](C1)CN3C=O [Example 19(k), (1aS,3aR,6bR)-2-Formyl-5-(1-methyl-1H-tetrazol-5-ylsulphanylmethyl)-1-oxo-1a,2,3,3a,4,6b-hexahydro-1H-2,6a-diazacyclobut[cd]indene-6-carboxylic acid sodium salt] | – |
| 0.25 | > 32 | NC(=O)OCC1=C(C(=O)O)N2C(=O)[C@@H]3[C@H]2[C@H](C1)CN3C(=O)NCc1ccccc1 [Example 27(c), (1aS,3aR,6bR)-2-Benzylcarbamoyl-5-carbamoyloxymethyl-1-oxo-1a,2,3,3a,4,6b-hexahydro-1H-2,6a-diazacyclobut[cd]indene-6-carboxylic acid sodium salt] | – |

The remaining lines, values behind:

| Structure (SMILES) | MIC C. freundii 1982 (D) [1, 2] [µg/mL] | MIC E. coli 1346 (E) (E. coli 1346; Table 4) [µg/mL] | also measured |
| --- | --- | --- | --- |
| O=C(O)C1=C(Sc2ccncc2)C[C@@H]2CN[C@@H]3C(=O)N1[C@H]23 [Example 2(d), (1aS,3aR,6bR)-1-oxo-5-(pyridin-4-ylsulphanyl)-1a,2,3,3a,4,6b-hexahydro-1H-2,6a-diazacyclobut[cd]indene-6-carboxylic acid trifluoroacetate] | 64 | > 32 | – |
| Cn1nnnc1SC1=C(C(=O)O)N2C(=O)[C@@H]3[C@H]2[C@H](C1)CN3C(=O)Nc1ccc(O)cc1 [Example 3(a), (1aS,3aR,6bR)-2-(4-Hydroxy-phenylcarbamoyl)-5-(1-methyl-1H-tetrazol-5-ylsulphanyl)-1-oxo-1a,2,3,3a,4,6b-hexahydro-1H-2,6a-diazacyclobut[cd]indene-6-carboxylic acid sodium salt] | – | – | MIC C. freundii 1982 [1, 3]: 0.25 µg/mL; MIC E. coli 1346 (E. coli 1346): 128 µg/mL |
| CO/N=C(\C(=O)N1C[C@H]2CC(Sc3nnnn3C)=C(C(=O)O)N3C(=O)[C@@H]1[C@@H]23)c1csc(N)n1 [Example 7, (Z)-(1aS,3aR,6bR)-2-[(2-Amino-thiazol-4-yl)-methoxyiminoacetyl]-1-oxo-5-(1-methyl-1H-tetrazol-5-ylsulphanyl)-1a,2,3,3a,4,6b-hexahydro-1H-2,6a-diazacyclobut[cd]indene-6-carboxylic acid sodium salt] | – | – | MIC C. freundii 1982 [1, 3]: 16 µg/mL; MIC E. coli 1346 (E. coli 1346): 64 µg/mL |
| CS(=O)(=O)OC1=C(C(=O)O)N2C(=O)[C@H]3NC[C@@H](C1)[C@H]32 [Example 8, (1aS,3aR,6bR)-5-Methylsulphonyloxy-1-oxo-1a,2,3,3a,4,6b-hexahydro-1H-2,6a-diazacyclobut[cd]indene-6-carboxylic acid trifluoroacetate] | – | – | MIC C. freundii 1982 [1, 3]: 1 µg/mL; MIC E. coli 1346 (E. coli 1346): 2 µg/mL |
| COC(=O)CC1=C(C(=O)O)N2C(=O)[C@H]3NC[C@@H](C1)[C@H]32 [Example 12(b), (1aS,3aR,6bR)-5-Methoxycarbonylmethyl-1-oxo-1a,2,3,3a,4,6b-hexahydro-1H-2,6a-diazacyclobut[cd]indene-6-carboxylic acid trifluoroacetate] | – | – | MIC C. freundii 1982 [1, 3]: 4 µg/mL; MIC E. coli 1346 (E. coli 1346): 8 µg/mL |
| Cn1nnnc1SCC1=C(C(=O)O)N2C(=O)[C@@H]3[C@H]2[C@H](C1)CN3S(C)(=O)=O [Example 19(e), (1aS,3aR,6bR)-2-Methylsulphonyl-5-(1-methyl-1H-tetrazol-5-ylsulphanylmethyl)-1-oxo-1a,2,3,3a,4,6b-hexahydro-1H-2,6a-diazacyclobut[cd]indene-6-carboxylic acid sodium salt] | – | – | MIC C. freundii 1982 (D) ([1]; Table 5, particularly preferred products, 1:4 combination with ceftriaxone): 0.25 µg/mL; MIC E. coli 1346 (E) (E. coli 1346; Table 5, particularly preferred products): 1 µg/mL |
| C[n+]1ccc(SCC2=C(C(=O)[O-])N3C(=O)[C@H]4NC[C@@H](C2)[C@H]43)cc1 [Example 20, (1aS,3aR,6bR)-5-(1-Methyl-pyridin-4-yliosulphanylmethyl)-1-oxo-1a,2,3,3a,4,6b-hexahydro-1H-2,6a-diazacyclobut[cd]indene-6-carboxylate trifluoroacetate] | – | – | MIC C. freundii 1982 [1, 3]: 1 µg/mL; MIC E. coli 1346 (E. coli 1346): ≤ 0.5 µg/mL |
| O=C([O-])C1=C(C[n+]2ccccc2)C[C@@H]2CN[C@@H]3C(=O)N1[C@H]23 [Example 22, (1aS,3aR,6bR)-1-Oxo-5-(pyridin-1-yliomethyl)-1a,2,3,3a,4,6b-hexahydro-1H-2,6a-diazacyclobut[cd]indene-6-carboxylate trifluoroacetate] | – | – | MIC C. freundii 1982 [1, 3]: 4 µg/mL; MIC E. coli 1346 (E. coli 1346): 4 µg/mL |
| Cc1nnc(SCC2=C(C(=O)O)N3C(=O)[C@H]4NC[C@@H](O2)[C@H]43)s1 [Example 29(a), (1aS,3aR,6bS)-5-(5-Methyl-1,3,4-thiadiazol-2-ylsulphanylmethyl)-1-oxo-1,1a,2,3,3a,6b-hexahydro-4-oxa-2,6a-diazacyclobut[cd]indene-6-carboxylic acid sodium salt] | 1 | 1 | – |
| O=C(O)C1=C(CSc2ccncc2)O[C@@H]2CN[C@@H]3C(=O)N1[C@@H]32 [Example 29(b), (1aS,3aR,6bS)-1-Oxo-5-(pyridin-4-ylsulphanylmethyl)-1,1a,2,3,3a,6b-hexahydro-4-oxa-2,6a-diazacyclobut[cd]indene-6-carboxylic acid] | 2 | > 16 | – |
| Nc1nnc(SCC2=C(C(=O)O)N3C(=O)[C@H]4NC[C@@H](O2)[C@H]43)s1 [Example 29(c), (1aS,3aR,6bS)-S-(S-Amino-1,3,4-thiadiazol-2-yl-sulphanylmethyl)-1-oxo-4-oxa-1,1a,2,3,3a,6b-hexahydro-2,6a-diazacyclobut[cd]indene-6-carboxylic acid sodium salt] | 0.5 | 2 | – |
| Cc1cc(SCC2=C(C(=O)O)N3C(=O)[C@H]4NC[C@@H](O2)[C@H]43)n2nc(C(N)=O)nc2n1 [Example 29(d), (1aS,3aR,6bS)-5-(2-Carbamoyl-5-methyl[1,2,4]triazolo-[1,5-a]pyrimidin-7-ylsulphanylmethyl)-1-oxo-1,1a,2,3,3a,6b-hexahydro-4-oxa-2,6a-diazacydobut[cd]indene-6-carboxylic acid] | 8 | 4 (≈ 9.58 µM) | – |
| Cn1nnnc1SCC1=C(C(=O)O)N2C(=O)[C@H]3NC[C@@H](O1)[C@H]32 [Example 29(e), (1aS,3aR,6bS)-5-(1-Methyl-1H-tetrazol-5-ylsulphanylmethyl)-1-oxo-1,1a,2,3,3a,6b-hexahydro-4-oxa-2,6a-diazacyclobut[cd]indene-6-carboxylic acid sodium salt] | 0.5 | 1 | – |
